Marks after values point to notes of the source that are not given here.
Assays:
Assay type in all cases: in vivo
[1] = test system: Botrytis cinerea (the causal agent of tomato Botrytis); experiment: Test C: tomato Botrytis, preventive spray on tomato seedlings, visual disease rating; conditions: for Test C rating (100 = 100% disease control, 0 = no disease control relative to the controls): tomato Botrytis, preventive spray on tomato seedlings; for Test C rating (% disease control, tomato Botrytis): 100 = 100% disease control
In short: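 Test suspension (acetone/water with 250 ppm Trem 014; 200 ppm equivalent to 800 g/ha) sprayed to run-off on tomato seedlings; B. cinerea spores inoculated next day. After 48 h saturated humidity at 20° C then 3 days at 24° C, disease rated visually as % control relative to untreated controls (0–100).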

[2] = test system: Blumeria graminis f. sp. tritici (also known as Erysiphe graminis f. sp. tritici, the causal agent of wheat powdery mildew); experiment: Test D: wheat powdery mildew, preventive spray on wheat seedlings, visual disease rating; conditions: for Test D rating (100 = 100% disease control, 0 = no disease control relative to the controls): wheat powdery mildew, preventive spray on wheat seedlings; for Test D rating (% disease control, wheat powdery mildew): 100 = 100% disease control
In short: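 Compound suspended in acetone/water (50/50) with 250 ppm Trem 014 and sprayed to run-off on wheat seedlings (200 ppm ≈ 800 g/ha), then inoculated next day with spore dust. Disease rated visually after 8 days at 20 °C as % control relative to untreated plants (0-100).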

[3] = test system: Puccinia recondite f. sp. tritici (the causal agent of wheat leaf rust); experiment: Test A: wheat leaf rust, preventive spray on wheat seedlings, visual disease rating; conditions: for Test A rating (100 = 100% disease control, 0 = no disease control relative to the controls): wheat leaf rust, preventive spray on wheat seedlings; for Test A rating (% disease control, wheat leaf rust): 100 = 100% disease control
In short: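 Wheat seedlings were sprayed to run-off with compound suspended in acetone/water containing 250 ppm Trem 014 (200 ppm ≈ 800 g/ha; some at 40 ppm). Puccinia recondite spores were inoculated the next day. Plants were held 24 h saturated at 20° C, then 7 days at 20° C, and disease control was rated visually on a 0–100 scale against controls.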

[4] = test system: Septoria tritici (the causal agent of wheat leaf blotch); experiment: Test B: wheat leaf blotch, preventive spray on wheat seedlings, visual disease rating; conditions: for Test B rating (100 = 100% disease control, 0 = no disease control relative to the controls): wheat leaf blotch, preventive spray on wheat seedlings; for Test B rating (% disease control, wheat leaf blotch): 100 = 100% disease control
In short: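 Wheat seedlings sprayed to run-off with compound suspension (acetone/water with 250 ppm Trem 014; 200 ppm ≈ 800 g/ha, some at 40 ppm), inoculated next day with Septoria tritici spores. 48 h saturated humidity at 24 °C, then 19 days at 20 °C; visual rating, 100 = full control.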

[5] = no asterisk (standard test suspension concentration, not 40 ppm)
[6] = asterisk: 40 ppm test suspension
[7] = asterisk: 40 ppm test suspension, 0 = no control
[8] = no asterisk: standard test suspension concentration, 0 = no control relative to controls

Compound	Test C rating (100 = 100% disease control, 0 = no disease control relative to the controls) [1, 5] [%]	Test D rating (100 = 100% disease control, 0 = no disease control relative to the controls) [2, 5] [%]	Test A rating (100 = 100% disease control, 0 = no disease control relative to the controls) [3, 5] [%]	Test B rating (100 = 100% disease control, 0 = no disease control relative to the controls) [4, 5] [%]	Test C rating (100 = 100% disease control, 0 = no disease control relative to the controls) [1, 6]	Test D rating (100 = 100% disease control, 0 = no disease control relative to the controls) [2, 6]	Test A rating (100 = 100% disease control, 0 = no disease control relative to the controls) [3, 6]	Test B rating (100 = 100% disease control, 0 = no disease control relative to the controls) [4, 6]	further results
Cc1ncc(C(O)c2ccc(Cl)cc2Cl)n1-c1c(F)cc(F)cc1Cl (centres unmarked) [compound 371]	58	0	95	100					
OC(c1ccc(F)cc1Cl)c1c(Cl)nc(Cl)n1-c1c(F)cccc1Cl (racemic) [compound 41]	100	100	100	100					
COc1ccc(C(O)c2c(Cl)nc(C)n2-c2ccc(F)cc2F)c(Cl)c1 (centres unmarked) [compound 307]					0* %	0* %	99* %	100* %	
COc1ccc(C(O)c2c(Br)ncn2-c2c(F)cccc2F)c(Cl)c1 (stereo not drawn) [Compound 274, 4-bromo-1-(2,6-difluorophenyl)-α-(2-chloro-4-methoxyphenyl)-1H-imidazole-5-methanol]	0	64	100	97					
Cc1nc(Cl)n(-c2c(F)cc(F)cc2Cl)c1C(O)c1ccc(F)cc1F (racemic) [compound 8]	100	100	100	100					
Cc1ccc(C(O)c2c(Cl)nc(C)n2-c2c(F)cccc2F)c(C)c1 (centres unmarked) [compound 191]					80* %	99* %	100* %	100* %	
COc1ccc(C(O)c2c(Br)nc(C)n2-c2c(F)cc(F)cc2Cl)c(Cl)c1 (centres unmarked) [compound 349]					98* %	90* %	100* %	100* %	
COc1cc(F)c(-n2c(C)nc(Br)c2C(O)c2ccc(F)cc2Cl)c(F)c1 (centres unmarked) [compound 392]									Test C rating (% disease control, tomato Botrytis) [1, 7]: 0* %; Test D rating (% disease control, wheat powdery mildew) [2, 7]: 0* %; Test A rating (% disease control, wheat leaf rust) [3, 7]: 99* %; Test B rating (% disease control, wheat leaf blotch) [4, 7]: 100* %
Cc1ncc(C(O)c2c(F)cc(Cl)cc2F)n1-c1ccc(F)cc1Br (centres unmarked) [compound 305]					21* %	0* %	9* %	17* %	
Cc1nc(Br)c(C(O)c2ccc(F)cc2Br)n1-c1ccc(F)cc1Cl (racemic) [compound 253]	100	27	100	100					
OC(c1ccc(F)cc1F)c1c(Cl)nc(Cl)n1-c1c(F)cc(F)cc1Cl (racemic) [compound 40]	100	100	100	100					
COc1ccc(C(O)c2c(Cl)nc(Br)n2-c2ccc(F)cc2Cl)c(Cl)c1 (centres unmarked) [compound 357]					99* %	98* %	100* %	100* %	
Cc1cc(F)ccc1C(O)c1c(Cl)nc(C)n1-c1c(F)cccc1F (centres unmarked) [compound 91]	98	94	100	100					
Cc1nc(Cl)n(-c2c(F)cccc2F)c1C(O)c1ccc(F)cc1F (racemic) [compound 26]					100* %	99* %	100* %	100* %	
Cc1nc(Cl)c(C(O)c2c(F)cccc2F)n1-c1c(F)cccc1F (centres unmarked) [compound 105]					85* %	64* %	99* %	100* %	
Cc1nc(Br)c(C(O)c2ccc(F)cc2F)n1-c1c(F)cc(Cl)cc1F (centres unmarked) [compound 126]					0* %	0* %	96* %	100* %	
Cc1ncc(C(O)c2ccc(F)cc2Cl)n1-c1c(F)cc(Cl)cc1F (centres unmarked) [compound 115]					97* %	0* %	100* %	96* %	
Cc1cc(F)ccc1C(O)c1c(Br)nc(C)n1-c1ccc(F)cc1F (centres unmarked) [compound 379]									Test C rating (% disease control, tomato Botrytis) [1, 8]: 99%; Test D rating (% disease control, wheat powdery mildew) [2, 8]: 79%; Test A rating (% disease control, wheat leaf rust) [3, 8]: 100%; Test B rating (% disease control, wheat leaf blotch) [4, 8]: 100%
OC(c1ccc(Cl)cc1)c1c(Cl)nc(Cl)n1-c1ccc(F)cc1Cl (single isomer, unassigned) [compound 47]	99	0	100	100					
COc1ccc(-n2c(C)nc(Br)c2C(O)c2ccc(F)cc2Cl)c(OC)c1 (racemic) [compound 217]					42* %	0* %	0* %	0* %	

Reference: patent US20130143929A1, “FUNGICIDAL IMIDAZOLES” (EI DU PONT DE NEMOURS AND COMPANY, priority 2010, published 2013)
